Assay results: ChEMBL document CHEMBL1143762, “CP5484, a novel quaternary carbapenem with potent anti-MRSA activity and reduced toxicity” (Bioorg Med Chem, 2007)
In brackets after ≈: the same amount, converted by molar mass.

Experiments:
Staphylococcus aureus [1] = experiment: Antibacterial activity against Staphylococcus aureus 209P JC1; type: functional
Staphylococcus aureus [2] = experiment: Antibacterial activity against methicillin-resistant Staphylococcus aureus M126; type: functional
Staphylococcus aureus [3] = experiment: Antibacterial activity against carbapenem-resistant Staphylococcus aureus M126 HR; type: functional
Mus musculus = experiment: Acute toxicity in iv dosed ICR mouse assessed as mortality after 24 hrs; type: organism-based; conditions: in vivo
Staphylococcus aureus [4] = experiment: Antibacterial activity against penicillin-resistant Staphylococcus aureus PRC9; type: functional
Escherichia coli = experiment: Antibacterial activity against Escherichia coli NIHJ JC2; type: functional
Klebsiella pneumoniae = experiment: Antibacterial activity against Klebsiella pneumoniae PCI602; type: functional
Moraxella catarrhalis = experiment: Antibacterial activity against Moraxella catarrhalis W-0500; type: functional
Haemophilus influenzae = experiment: Antibacterial activity against beta lactamase positive amoxicillin/clavulanic acid-resistant Haemophilus influenzae PRC44; type: functional
Pseudomonas aeruginosa = experiment: Antibacterial activity against Pseudomonas aeruginosa PAO1; type: functional
Staphylococcus aureus [5] = experiment: Antibacterial activity against methicillin-resistant Staphylococcus aureus; type: functional
Staphylococcus aureus [6] = experiment: Antibacterial activity against methicillin-resistant Staphylococcus aureus MF126; type: functional
Staphylococcus aureus [7] = experiment: Protective effect against methicillin-resistant Staphylococcus aureus MF126 systemic infection in ICR mouse dosed sc twice a day; type: functional
[8] = Half life in mouse at 20 mg/kg, iv administered with 10 mg/kg cilastatin; type: ADME, organism-based; conditions: in vivo
[9] = AUC (0-infinity) in mouse at 20 mg/kg, iv administered with 10 mg/kg cilastatin; type: ADME, organism-based; set-up: dose 20 mg/kg, route intravenous, time infinity; conditions: plasma
[10] = Total clearance in mouse at 20 mg/kg, iv administered with 10 mg/kg cilastatin; type: ADME, organism-based; conditions: in vivo
[11] = Volume of distribution at steady state in mouse at 20 mg/kg, iv administered with 10 mg/kg cilastatin; type: ADME, organism-based; conditions: in vivo, read-out: Vss
[12] = Urinary excretion of compound in mouse at 20 mg/kg, iv administered with 10 mg/kg cilastatin; type: ADME, organism-based; conditions: urine, read-out: Activity
Serum [13] = experiment: Protein binding in mouse serum by equilibrium dialysis method; type: ADME, cell-free
Serum [14] = experiment: Protein binding in human serum by equilibrium dialysis method; type: ADME, cell-free

For `CSc1c2sc(C3=C(C(=O)[O-])N4C(=O)[C@H]([C@@H](C)O)[C@H]4[C@H]3C)cn2c[n+]1C[C@@H](CN)OCF`, the MIC (Staphylococcus aureus [1]) was less than 6 ng/mL, the MIC (Staphylococcus aureus [2]) was 0.78 µg/mL (≈ 1.61 µM) and the MIC (Staphylococcus aureus [3]) was 3.13 µg/mL (≈ 6.46 µM). The MLD (Mus musculus) was 500 mg/kg.

`CSc1c2sc(C3=C(C(=O)[O-])N4C(=O)[C@H]([C@@H](C)O)[C@H]4[C@H]3C)cn2c[n+]1CCS(=O)(=O)CCN` gave an MIC (Staphylococcus aureus [1]) of less than 6 ng/mL, an MIC (Staphylococcus aureus [2]) of 0.78 µg/mL (≈ 1.52 µM) and an MIC (Staphylococcus aureus [3]) of 3.13 µg/mL (≈ 6.08 µM). For the same compound, the MLD (Mus musculus) was greater than 500 mg/kg.

Work on `CSc1c2sc(C3=C(C(=O)[O-])N4C(=O)[C@H]([C@@H](C)O)[C@H]4[C@H]3C)cn2c[n+]1[C@@H]1CN[C@H](C(=O)N(C)C)C1` yielded an MIC (Staphylococcus aureus [1]) of 25 ng/mL (≈ 0.0481 µM), an MIC (Staphylococcus aureus [2]) of 3.13 µg/mL (≈ 6.02 µM) and an MIC (Staphylococcus aureus [3]) of 6.25 µg/mL (≈ 12 µM).

`CSc1c2sc(C3=C(C(=O)[O-])N4C(=O)[C@H]([C@@H](C)O)[C@H]4[C@H]3C)cn2c[n+]1[C@H]1CCNC1` gave an MIC (Staphylococcus aureus [1]) of less than 6 ng/mL, an MIC (Staphylococcus aureus [2]) of 0.78 µg/mL (≈ 1.74 µM) and an MIC (Staphylococcus aureus [3]) of 1.56 µg/mL (≈ 3.48 µM). The MLD (Mus musculus) was 500 mg/kg.

`CSc1c2sc(C3=C(C(=O)[O-])N4C(=O)[C@H]([C@@H](C)O)[C@H]4[C@H]3C)cn2c[n+]1CCSCCN` gave an MIC (Staphylococcus aureus [1]) of less than 6 ng/mL, an MIC (Staphylococcus aureus [2]) of 0.39 µg/mL (≈ 0.808 µM) and an MIC (Staphylococcus aureus [3]) of 1.56 µg/mL (≈ 3.23 µM).

With `CSc1c2sc(C3=C(C(=O)[O-])N4C(=O)[C@H]([C@@H](C)O)[C@H]4[C@H]3C)cn2c[n+]1C1CCNCC1` the MIC (Staphylococcus aureus [1]) was 13 ng/mL (≈ 0.0281 µM), the MIC (Staphylococcus aureus [2]) was 1.56 µg/mL (≈ 3.37 µM) and the MIC (Staphylococcus aureus [3]) was 3.13 µg/mL (≈ 6.77 µM).

Work on `CSc1c2sc(C3=C(C(=O)[O-])N4C(=O)[C@H]([C@@H](C)O)[C@H]4[C@H]3C)cn2c[n+]1CCCN` yielded an MIC (Staphylococcus aureus [1]) of less than 6 ng/mL, an MIC (Staphylococcus aureus [2]) of 0.78 µg/mL (≈ 1.79 µM) and an MIC (Staphylococcus aureus [3]) of 1.56 µg/mL (≈ 3.57 µM). The MLD (Mus musculus) was 250 mg/kg.

`CSc1c2sc(C3=C(C(=O)[O-])N4C(=O)[C@H]([C@@H](C)O)[C@H]4[C@H]3C)cn2c[n+]1CCCSC(=N)N` showed an MIC (Staphylococcus aureus [1]) of less than 6 ng/mL, an MIC (Staphylococcus aureus [2]) of 0.39 µg/mL (≈ 0.787 µM) and an MIC (Staphylococcus aureus [3]) of 1.56 µg/mL (≈ 3.15 µM). It also gave an MLD (Mus musculus) of 250 mg/kg.

`CO[C@H](CN)C[n+]1cn2cc(C3=C(C(=O)[O-])N4C(=O)[C@H]([C@@H](C)O)[C@H]4[C@H]3C)sc2c1SC` showed an MIC (Staphylococcus aureus [1]) of less than 6 ng/mL, an MIC (Staphylococcus aureus [2]) of 0.78 µg/mL (≈ 1.67 µM) and an MIC (Staphylococcus aureus [3]) of 3.13 µg/mL (≈ 6.71 µM). For the same compound, the MLD (Mus musculus) was greater than 500 mg/kg.

With `CSc1c2sc(C3=C(C(=O)[O-])N4C(=O)[C@H]([C@@H](C)O)[C@H]4[C@H]3C)cn2c[n+]1C[C@H](O)CN` the MIC (Staphylococcus aureus [1]) was less than 6 ng/mL, the MIC (Staphylococcus aureus [2]) was 0.78 µg/mL (≈ 1.72 µM) and the MIC (Staphylococcus aureus [3]) was 1.56 µg/mL (≈ 3.45 µM). For the same compound, the MIC (Staphylococcus aureus [4]) was 0.05 µg/mL (≈ 0.11 µM), the MIC (Escherichia coli) was 0.05 µg/mL (≈ 0.11 µM) and the MIC (Klebsiella pneumoniae) was 0.1 µg/mL (≈ 0.221 µM). It also gave an MIC (Moraxella catarrhalis) of 0.05 µg/mL (≈ 0.11 µM), an MIC (Haemophilus influenzae) of 0.78 µg/mL and an MIC (Pseudomonas aeruginosa) of 6.25 µg/mL (≈ 13.8 µM). It also gave an MLD (Mus musculus) greater than 500 mg/kg, an MIC50 (Staphylococcus aureus [5]) of 0.78 µg/mL (≈ 1.72 µM) and an MIC90 (Staphylococcus aureus [5]) of 1.56 µg/mL (≈ 3.45 µM). The MIC (Staphylococcus aureus [6]) was 1.56 µg/mL (≈ 3.45 µM), the ED50 (Staphylococcus aureus [7]) was 0.039 mg and the half-life [8] was 13.4 min. It also gave an AUC(0-inf) [9] of 12600 ng·h/mL, a clearance [10] of 26.8 mL/min/kg and a Vd [11] of 0.34 L/kg. The dose excreted [12] was 41.9%, the Activity (Serum [13]) was 16% and the Activity (Serum [14]) was 12.2%.

Compound `CSc1c2sc(C3=C(C(=O)[O-])N4C(=O)[C@H]([C@@H](C)O)[C@H]4[C@H]3C)cn2c[n+]1C[C@@H]1CCCN1` has an MIC (Staphylococcus aureus [1]) of less than 6 ng/mL, an MIC (Staphylococcus aureus [2]) of 0.78 µg/mL (≈ 1.69 µM) and an MIC (Staphylococcus aureus [3]) of 3.13 µg/mL (≈ 6.77 µM).

Work on `CN[C@H](CC(C)C)C(=O)N[C@H]1C(=O)N[C@@H](CC(N)=O)C(=O)N[C@H]2C(=O)N[C@H]3C(=O)N[C@H](C(=O)N[C@H](C(=O)O)c4cc(O)cc(O)c4-c4cc3ccc4O)[C@H](O)c3ccc(c(Cl)c3)Oc3cc2cc(c3O[C@@H]2O[C@H](CO)[C@@H](O)[C@H](O)[C@H]2O[C@H]2C[C@](C)(N)[C@H](O)[C@H](C)O2)Oc2ccc(cc2Cl)[C@H]1O` [VANCOMYCIN] yielded an MIC (Staphylococcus aureus [1]) of 780 ng/mL (≈ 0.538 µM), an MIC (Staphylococcus aureus [2]) of 1.56 µg/mL (≈ 1.08 µM) and an MIC (Staphylococcus aureus [3]) of 1.56 µg/mL (≈ 1.08 µM). It also gave an MIC50 (Staphylococcus aureus [5]) of 1.56 µg/mL (≈ 1.08 µM), an MIC90 (Staphylococcus aureus [5]) of 1.56 µg/mL (≈ 1.08 µM) and an MIC (Staphylococcus aureus [6]) of 0.78 µg/mL (≈ 0.538 µM). For the same compound, the ED50 (Staphylococcus aureus [7]) was 0.18 mg.
